Patent US9273043B2, “TRPV1 antagonists including dihydroxy substituent and uses thereof” (Purdue Pharma L.P., priority 2011, dated 2016)
Marks after values point to notes of the source that are not given here.

What was measured:
[1] = tested on: MIA-induced osteoarthritis pain; test: MIA-induced osteoarthritis model, weight bearing difference (WBD) test; type: in vivo; settings: rat MIA, oral 3 mg/kg
Source text: Osteoarthritis Pain: To assess the actions of a Compound of Formula (I) for the treatment or prevention of osteoarthritis pain, the rat monosodium iodo-acetate (MIA, i.e., sodium 2-iodoacetate) induced osteoarthritis model was used. Intra-articular injection of MIA causes joint degeneration characterized by osteolysis and swelling, with displacement of the patella, and reductions in bone mineral content and bone mineral density (Pomonis et al., “Development and pharmacological characterization of a rat model of osteoarthritis pain,” Pain 114: 339-346 (2005)). Under isoflurane anaesthesia, an intra-articular injection of 2 mg of MIA (Sigma-Aldrich) in 50 μl of saline was administered through the infrapatellar ligament of the knee joint of the right hind leg of the male, 6 week old Crl:CD(SD) rats. Control rats received an intra-articular injection of 50 μl of saline into the knee joint of the right hind leg. The left knee joint of all rats was untreated. […] Thus, in the assessment for osteoarthritis pain relief through gripping capability determinations, the 24 hour time point was the start of the next day when drug-in-vehicle was again orally administered (24 hours after the prior administration) for certain dosages. […] Weight Bearing Difference Test as an Assessment of Osteoarthritis Related Pain: The weight bearing difference test provides an accepted assessment of the efficacy of clinically useful analgesic drugs with respect of osteoarthritis related pain (see Pomonis et al. (2005)). WBD was assessed using a Linton Incapacitance Tester (Linton Instrumentation, Norfolk, UK). Rats were placed on the apparatus so that they were standing on their hind legs, and allowed to acclimate to the apparatus. When stationary, the weight born on each leg was measured over a 3s period. Three readings were taken for each rat at each time point; the average of the three readings was used for data analysis. WBD was expressed as “% WR”, i.e., the percentage of weight born on the MIA-injected right hind leg, using the following formula: [formula] where WR is the weight on the right hind leg and WL is the weight on the left (untreated) hind leg. […] The “% WRR”, i.e., the percentage reversal of the % WR impediment occurring post-MIA injection, was determined for each dosage at each time point using the following formula: [formula] where (% WR)Post-Drug is the % WR determined at each post-oral-administration time-point for each dose of each administered substance, (% WR)Pre-Drug is the % WR determined pre-oral-administration of each administered substance, and (% WR)Control Rat is the % WR determined for control rats (receiving the saline injection into the right hind leg knee joint). With the exception of the controls (i.e., celecoxib, vehicle) where the student's t-test was used, Dunnett's test was conducted for the % WRR.

[2] = tested on: MIA-induced osteoarthritis pain; test: MIA-induced osteoarthritis model, grip force test; type: in vivo, rat; settings: for % GFR [mean]: rat MIA, grip force, oral 3 mg/kg
Source text: Osteoarthritis Pain: To assess the actions of a Compound of Formula (I) for the treatment or prevention of osteoarthritis pain, the rat monosodium iodo-acetate (MIA, i.e., sodium 2-iodoacetate) induced osteoarthritis model was used. Intra-articular injection of MIA causes joint degeneration characterized by osteolysis and swelling, with displacement of the patella, and reductions in bone mineral content and bone mineral density (Pomonis et al., “Development and pharmacological characterization of a rat model of osteoarthritis pain,” Pain 114: 339-346 (2005)). Under isoflurane anaesthesia, an intra-articular injection of 2 mg of MIA (Sigma-Aldrich) in 50 μl of saline was administered through the infrapatellar ligament of the knee joint of the right hind leg of the male, 6 week old Crl:CD(SD) rats. Control rats received an intra-articular injection of 50 μl of saline into the knee joint of the right hind leg. The left knee joint of all rats was untreated. Two weeks after MIA injection, rats were assessed for osteoarthritis pain related-behaviors immediately prior to and 1, 3, 5, 7, and 24 hours after oral drug-in-vehicle administration (for day 1) by determining their weight-bearing capabilities, via the weight bearing difference (WBD) test, and their gripping capabilities, via the grip force test, each as described below. Thus, in the assessment for osteoarthritis pain relief through gripping capability determinations, the 24 hour time point was the start of the next day when drug-in-vehicle was again orally administered (24 hours after the prior administration) for certain dosages. On days 2, 3, and 4, gripping capability response was determined 3 and 24 hours thereafter.
The grip force (GF) of the hind legs was assessed using a Animal Grip Strength System (San Diego Instruments, San Diego, Calif.). Rats were gently restrained and allowed to grasp the wire mesh strain gauge with their hind legs. The animals were then moved in a rostral-caudal direction until they let go of the gauge. The force (in g) at which the rat let go was recorded. Each animal was tested twice at approximately 3-10 minute intervals at each time point and the average of the two readings was used for the GF in data analysis.
Grip force, normalized to account for the weight of each animal, was expressed as “GF/B”, i.e., the ratio of GF to body weight, where GF is the grip force in grams and B is the body weight of the animal in kg. The “% GFR”, i.e., the percentage reversal of the (normalized) grip force impediment occurring post-MIA injection, was determined for each dosage at each time point using the following formula:
[formula] where (GF/B)Drug is the GF/B determined at each post-oral-administration time-point for each dose of each substance administered to MIA-injected animals, (GF/B)Vehicle is the GF/B determined at each post-oral-administration time-point for the vehicle control administered to MIA-injected animals, and (GF/B)Control Rat is the GF/B determined for control rats (saline-injected animals receiving orally-administered vehicle only). With the exception of the controls (i.e., celecoxib, vehicle) where the student's t-test was used, Dunnett's test was conducted for the % GFR. In either instance, values with p <0.05 were considered to be statistically significant.

[3] = tested on: neuropathic mechanical hyperalgesia after partial sciatic nerve ligation; test: Seltzer model (partial sciatic nerve ligation) of neuropathic pain, paw withdrawal threshold; type: in vivo, rat; settings: for % Reversal [mean ± SEM]: rat
Method: In the Seltzer model, the partial sciatic nerve ligation model of neuropathic pain was used to produce neuropathic hyperalgesia in rats (Seltzer et al., “A Novel Behavioral Model of Neuropathic Pain Disorders Produced in Rats by Partial Sciatic Nerve Injury,” Pain 43:205-218 (1990)). Partial ligation of the left sciatic nerve was performed under isoflurane/O2 inhalation anaesthesia. Following induction of anesthesia, the left thigh of the male, 6-7 week old Jcl:SD rat was shaved. The sciatic nerve was exposed at high thigh level through a small incision and was carefully cleared of surrounding connective tissues at a site near the trocanther just distal to the point at which the posterior biceps semitendinosus nerve branches off of the common sciatic nerve. A 7-0 silk suture was inserted into the nerve with a ⅜ curved, reversed-cutting mini-needle and tightly ligated so that the dorsal ⅓ to ½ of the nerve thickness was held within the ligature. The wound was closed with a single muscle suture (4-0 nylon (Vicryl)) and vetbond tissue glue. The wound area was then dusted with antibiotic powder. Sham treatment involved an identical surgical procedure except that the sciatic nerve was not manipulated or ligated.
Following surgery, animals were weighed and placed on a warm pad until they recovered from anesthesia. Animals were then returned to their home cages until behavioral testing began. The animal was assessed for response to noxious mechanical stimuli by determining PWT for the rear paw of the animal, as described below, prior to surgery (baseline), then immediately prior to and 1, 3, 5, 7, and 24 hours after oral drug-in-vehicle administration (for day 1). Thus, the 24 hour time point was the start of the next day when drug-in-vehicle was again orally administered (24 hours after the prior administration). On days 2 and 3, PWT response was determined 1, 3, and 24 hours thereafter. Percentage reversal of neuropathic hyperalgesia at each of the specified times after administration was defined as: […]
Additionally, 10 mg/kg of pregabalin (Kemprotec, Ltd., Middlesbrough, UK), an anticonvulsant accepted for relief of particular neuropathic pain, in vehicle and the vehicle alone (0.5% weight/volume methylcellulose (400cP, Wako Pure Chemical Industries, Ltd.)/aqueous solution) were orally administered as controls. […] Ten rats that underwent partial ligation of the left sciatic nerve were used for each treatment group. Dunnett's test was conducted for the % reversal; values with p<0.05 were considered to be statistically significant.
Additionally, as a control the rats underwent sham surgery in which an identical surgical procedure was followed with regard to the right thigh but the sciatic nerve was neither manipulated nor ligated.
Response to Mechanical Stimuli as an Assessment of Mechanical Hyperalgesia: The paw pressure assay was used to assess mechanical hyperalgesia. […] Biochem. and Behavior 31:451-455 (1988). The maximum weight that could be applied to the hind paw was set at 250 g and the end point was taken as complete withdrawal of the paw. PWT was determined once for each rat at each time point and either only the affected (ipsilateral) paw was tested, or both the ipsilateral and contralateral (non-injured) paw were tested.

## Cc1ccc(-c2cc(C(F)(F)F)nn2-c2ccc(S(N)(=O)=O)cc2)cc1 [Celecoxib, celecoxib, reference compound]
[1]; 1 h after administration
  % WRR [mean]: 10.2^† %
[1]; 1 h after administration, listed as celecoxib
  % WRR [mean]: 10.2%
[1]; 3 h after administration
  % WRR [mean]: 27.8^†† %
[1]; 3 h after administration, listed as celecoxib
  % WRR [mean]: 27.8%
[1]; 5 h after administration
  % WRR [mean]: 14.1^†† %
[1]; 5 h after administration, listed as celecoxib
  % WRR [mean]: 14.1%
[1]; 7 h after administration
  % WRR [mean]: 6.0^† %
[1]; 7 h after administration, listed as celecoxib
  % WRR [mean]: 6.0%
[1]; 24 h after administration
  % WRR [mean]: 2.0%
[2]; 30.0% reversal (3 mg/kg, 3 h, day 1) as share of the 45.2% reversal of the product at 1 mg/kg
  maximum analgesic efficacy relative to the Example 10 product at 1 mg/kg: about 66.4%
[2]; 30.0% reversal (3 mg/kg, 3 h, day 1) as share of the 53.6% reversal of the product at 3 mg/kg
  maximum analgesic efficacy relative to the Example 10 product at 3 mg/kg: ~56.0%
[2]; 1 h (day 1)
  % GFR [mean]: 22.6^†† %
[2]; 3 h (day 1)
  % GFR [mean]: 30.0^†† %
[2]; 3 h (day 1), listed as celecoxib
  % GFR [mean]: 30.0%
[2]; 5 h (day 1)
  % GFR [mean]: 20.9^†† %
[2]; 7 h (day 1)
  % GFR [mean]: 3.6%
[2]; 24 h after day 1 dose (0 hrs day 2)
  % GFR [mean]: −3.6%

## CC(C)C[C@H](CN)CC(=O)O [pregabalin, reference compound]
[3]; 24.73% reversal (10 mg/kg, 3 h, day 1) as share of the 34.17% reversal of the product at 10 mg/kg
  maximum analgesic efficacy relative to the Example 10 product at 10 mg/kg: about 72%
[3]; pregabalin control 10 mg/kg oral once daily, 1 hours (day 2) after administration
  % Reversal [mean ± SEM]: 16.74 ± 4.23 %
[3]; pregabalin control 10 mg/kg oral once daily, 1 hours (day 3) after administration
  % Reversal [mean ± SEM]: 17.16 ± 6.64 %
[3]; pregabalin control 10 mg/kg oral once daily, 3 hours (day 2) after administration
  % Reversal [mean ± SEM]: 23.21 ± 2.30 %
[3]; pregabalin control 10 mg/kg oral once daily, 3 hours (day 3) after administration
  % Reversal [mean ± SEM]: 26.56 ± 4.95 %
[3]; pregabalin control 10 mg/kg oral once daily, 24 hours (0 hrs day 2) after administration
  % Reversal [mean ± SEM]: −2.84 ± 4.74%
[3]; pregabalin control 10 mg/kg oral once daily, 24 hours (0 hrs day 3) after administration
  % Reversal [mean ± SEM]: 1.70 ± 4.29%
[3]; pregabalin control 10 mg/kg oral once daily, 24 hours (0 hrs day 4) after administration
  % Reversal [mean ± SEM]: −3.67 ± 2.66%
[3]; pregabalin control 10 mg/kg oral, 1 hours (day 1) after administration
  % Reversal [mean ± SEM]: 24.05 ± 6.46 %
[3]; pregabalin control 10 mg/kg oral, 3 hours (day 1) after administration
  % Reversal [mean ± SEM]: 24.73 ± 4.12 %
[3]; pregabalin control 10 mg/kg oral, 5 hours (day 1) after administration
  % Reversal [mean ± SEM]: 19.97 ± 4.79 %
[3]; pregabalin control 10 mg/kg oral, 7 hours (day 1) after administration
  % Reversal [mean ± SEM]: 11.89 ± 3.16 %
[3]; rat Seltzer model, oral 10 mg/kg, 3 h after day 1 administration (maximum)
  % reversal of neuropathic hyperalgesia: 24.73%
